Assay results reported in PubChem BioAssay (NCI).
Values joined by “and” are separate entries in the source; they are usually repeats but may differ in a detail not shown here. Equal values may be shown once.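 Five concentrations, 48 hours, 96-well plates. The concentration for 50% growth inhibition is given as GI50. TGI: total growth inhibition.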

Legend:
Test in all cases: growth of human tumour cells (NCI), 48 h
CAKI-1 renal = system: CAKI-1 renal
HCT-116 colon = system: HCT-116 colon
HT29 colon = system: HT29 colon
M14 melanoma = system: M14 melanoma
NCI-H23 lung = system: NCI-H23 lung
OVCAR-8 ovarian = system: OVCAR-8 ovarian
PC-3 prostate = system: PC-3 prostate
RPMI-8226 leukemia = system: RPMI-8226 leukemia
SF-295 CNS = system: SF-295 CNS
SK-OV-3 ovarian = system: SK-OV-3 ovarian
SNB-75 CNS = system: SNB-75 CNS

SMILES	TGI (CAKI-1 renal) [µM]	TGI (HCT-116 colon) [µM]	TGI (HT29 colon) [µM]	TGI (M14 melanoma) [µM]	TGI (NCI-H23 lung) [µM]	TGI (OVCAR-8 ovarian) [µM]	TGI (PC-3 prostate) [µM]	TGI (RPMI-8226 leukemia)	TGI (SF-295 CNS) [µM]	TGI (SK-OV-3 ovarian) [µM]	TGI (SNB-75 CNS) [µM]	GI50 (CAKI-1 renal) [µM]	GI50 (NCI-H23 lung) [µM]	GI50 (OVCAR-8 ovarian) [µM]	GI50 (PC-3 prostate) [µM]	GI50 (RPMI-8226 leukemia) [µM]	GI50 (SF-295 CNS) [µM]	GI50 (SK-OV-3 ovarian) [µM]	GI50 (SNB-75 CNS) [µM]	GI50 (M14 melanoma) [µM]
COc1cc2c3c(cc(Cl)nc3c1OC)C(=O)C(=O)N2	28.6	13.6	41.4	29.3	34.1	43.9	27.6	> 100 µM	32.9	33.3	29.4	–	–	–	–	–	–	–	–	–
NCCCCNCCCNC(=O)CNC(=O)CC(O)C(N)CCCC(NC(=O)C(CN)NC(=O)C(O)CNC(=O)CC(N)c1ccc(O)cc1)C(=O)O (stereo not given)	> 10	> 10	> 10	> 10	> 10	> 10	> 10	> 10 µM	> 10	> 10	> 10	–	–	–	–	–	–	–	–	–
CNC(=S)NNc1ncnc2c1c(-c1ccc(Cl)cc1)cn2-c1ccc(C)cc1	23.2	17.1	29.8	26.5	28.2	31.5	17.9	75.9 µM	20	28.9	–	–	–	–	–	–	–	–	–	–
N#Cc1nc(CCCN2C(=O)c3ccccc3C2=O)oc1N	> 100	> 100	> 100	> 100	> 100	> 100	> 100	> 100 µM	> 100	> 100	–	–	–	–	–	–	–	–	–	–
CCN(CCCCCCCCCCN1CC(=O)N(CCCCCCCCCCN(CC)Cc2ccccc2OC)CC1=O)Cc1ccccc1OC	3.15	–	–	–	4.52	3.29	2.59	3.1 µM	3.02	3.68	11.8	1.57	1.81	1.47	1.14	0.812	1.15	1.83	2.68	–
Cc1nnc2n1-c1ccccc1N(Cc1ccccc1)CC2	> 100	> 100	> 100	> 100	> 100	> 100	> 100	58.3 µM	> 100	> 100	> 100	–	–	–	–	–	–	–	–	–
COc1ccc(C2Oc3c(OC)cc(CCCO)cc3C2CO)cc1OC (stereo not given)	–	> 100	> 100	> 100	> 100	> 100	> 100	60.4 µM and > 100 µM	> 100	> 100	> 100	–	–	–	–	–	–	–	–	–
CCN1CCN(Cc2ccc(NC(=O)Nc3ccc(-n4ccc5c(NC(=O)c6ccccc6)nccc54)cc3)cc2C(F)(F)F)CC1	–	–	–	2.39	–	4.92	4.68	> 100 µM	–	10.5	2.68	–	–	0.968	1.16	0.942	–	1.8	1.37	1.12
CCCCCCc1cc2cc(-c3csc(-c4ccc(OC)cc4)n3)c(=O)oc2cc1O	20	20.1	> 100	27.5	–	–	41.5	> 100 µM	28.5	33.1	47.2	–	–	–	–	–	–	–	–	–
Cc1cccc(NS(=O)(=O)c2ccc(N=Nc3c(O)c(C(=O)O)cc4ccccc34)cc2)n1	> 100	> 100	> 100	> 100	> 100	> 100	> 100	> 100 µM	> 100	> 100	> 100	–	–	–	–	–	–	–	–	–
C=C1C[C@@H]2CC[C@@]34C[C@H]5O[C@H]6[C@@H](O3)[C@H]3O[C@H](CC[C@@H]3O[C@H]6[C@H]5O4)CC(=O)C[C@@H]3[C@@H](OC)[C@@H](C[C@H](O)CN)O[C@H]3C[C@H]3O[C@@H](CC[C@@H]1O2)C[C@@H](C)C3=C	0.366	0.101	0.0133	0.0307	0.173	0.167	> 0.12	0.0344 µM	0.251	0.286	> 1	–	–	–	–	–	–	–	0.00046	–
CCCCN1C(=O)CC2[C@@H]3CCc4cc(OC)ccc4C3CC[C@]2(C)C1=O (stereo not given in full)	> 10	> 10	> 10	> 10	> 10	> 10	> 10	> 10 µM	> 10	> 10	> 10	–	–	–	–	–	–	–	–	–
O=C1/C(=C/c2ccncc2)C(n2cccc2)c2c(Br)sc(Br)c21 (stereo not given)	10.9	10.4	23.5	–	11.6	5.82	16.1	7.2 µM	26.1	20.7	9.79	–	–	–	–	–	–	–	–	–
COc1ccc(OC/C(N=Cc2ccncc2)=N/NC(=O)c2ccncc2)cc1	> 100	> 100	> 100	> 100	> 100	> 100	> 100	> 100 µM	> 100	> 100	–	–	–	–	–	–	–	–	–	–
Cc1cc(OCc2nnc3sc(NC(=O)c4ccccc4)nn23)ccc1Cl	36	> 100	> 100	> 100	82.2	47.1	> 100	69.2 µM	> 100	> 100	–	–	–	–	–	–	–	–	–	–
COc1ccc2c(c1)-c1c(c3cc(OC)ccc3n1CCN(C)C)CC2	28.8	24.4	19.1	28.5	29.6	32.6	25.9	31.2 µM	34.3	37.1	43.4	–	–	–	–	–	–	–	–	–
Oc1c(OCc2nnc(CCCCCCCCc3nnc(COc4ccc5ccccc5c4O)o3)o2)ccc2ccccc12	> 100	35.6	> 100	> 100	> 100	–	> 100	> 100 µM	> 100	> 100	> 100	–	–	–	–	–	–	–	–	–
c1c(N2CCOCC2)ssc1=[N+]1CCOCC1	> 100	> 100	> 100	> 100	> 100	> 100	–	> 100 µM	> 100	> 100	> 100	–	–	–	–	–	–	–	–	–
O=P(OCc1ccccc1)(OCc1ccccc1)C(O)/C=C/c1ccccc1 (stereo not given)	98.7	39.8	45.4	37	44.6	55.9	> 100	82.8 µM	49.4	> 100	–	–	–	–	–	–	–	–	–	–
